{
  "source": "PubChem BioAssay AID651940",
  "about": "(Sanford-Burnham Center for Chemical Genomics, 2012)",
  "molecular_target": "C-X-C chemokine receptor type 6 (Mus musculus) (UniProt Q9EQ16)",
  "sequence (Q9EQ16 whole entry, looked up)": "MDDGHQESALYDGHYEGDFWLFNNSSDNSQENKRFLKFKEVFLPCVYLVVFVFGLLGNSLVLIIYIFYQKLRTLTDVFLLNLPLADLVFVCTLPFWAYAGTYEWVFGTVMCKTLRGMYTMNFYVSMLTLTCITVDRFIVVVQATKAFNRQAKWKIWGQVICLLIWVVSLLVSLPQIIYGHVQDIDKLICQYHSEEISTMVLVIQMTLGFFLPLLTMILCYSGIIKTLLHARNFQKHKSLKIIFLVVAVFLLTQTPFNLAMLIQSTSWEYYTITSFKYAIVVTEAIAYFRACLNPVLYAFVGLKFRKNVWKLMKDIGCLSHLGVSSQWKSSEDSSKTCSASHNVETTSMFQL",
  "assay": "antagonism of murine CXCR6 beta-arrestin recruitment – cell-based, mouse ortholog, CHO-K1, luminescence, selectivity assay for human CXCR6 antagonist project, SAR follow-up (AID 651940)",
  "conditions": "CHO-K1 mCXCR6 beta-arrestin PathHunter",
  "note": "Calls of active or inactive are those of the source.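 The calls were made as follows: active = IC50 below 50 µM, and active in both the human and murine receptor assays; inactive = the rest.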",
  "data": [
    {"smiles": "COc1ccccc1NC(=O)CN1C2CCCC1CC(NC(=O)c1cc(OC)c(OC)c(OC)c1)C2", "note": "(configuration not stated)", "values": [
      {"measurement": "IC50", "result": "> 79 µM (inactive)"}
    ]},
    {"smiles": "COc1cc(C(=O)NC2CC3CCCC(C2)N3CC(=O)Nc2ccccc2)cc(OC)c1OC", "note": "(configuration not stated)", "values": [
      {"measurement": "IC50", "result": "> 79 µM (inactive)"}
    ]},
    {"smiles": "COc1cc(C(=O)NC2CC3CCCC(C2)N3CC(=O)Nc2ccc(Cl)cc2)cc(OC)c1OC", "note": "(configuration not stated)", "values": [
      {"measurement": "IC50", "result": "> 79 µM (inactive)"}
    ]},
    {"smiles": "COc1cc(C(=O)NC2CC3CCCC(C2)N3CC(=O)Nc2ccc(F)cc2)cc(OC)c1OC", "note": "(configuration not stated)", "values": [
      {"measurement": "IC50", "result": "> 79 µM (inactive)"}
    ]},
    {"smiles": "COc1ccc(CN2C3CCCC2CC(NC(=O)c2cc(OC)c(OC)c(OC)c2)C3)cc1", "note": "(configuration not stated)", "values": [
      {"measurement": "IC50", "result": "> 79 µM (inactive)"}
    ]},
    {"smiles": "COc1cc(C(=O)NC2CC3CCCC(C2)N3CC(=O)Nc2ccc(C)cc2)cc(OC)c1OC", "note": "(configuration not stated)", "values": [
      {"measurement": "IC50", "result": "inactive"}
    ]},
    {"smiles": "COc1ccc(NC(=O)CN2C3CCCC2CC(NC(=O)c2cc(OC)c(OC)c(OC)c2)C3)cc1", "note": "(configuration not stated)", "values": [
      {"measurement": "IC50", "result": "> 79 µM (inactive)"}
    ]}
  ]
}
